Source: PubChem BioAssay AID248 (DTP/NCI, 2004)
Several values for one entry are separate records, joined by “and”; a condition that tells them apart may be missing. Equal entries are not always repeated. Inconclusive results and toxic doses are left out. Square brackets hold non-standard residues; d marks the D form. Peptide text beside a SMILES is read from it. * marks the point of attachment. Cbz = O=C(OCc1ccccc1)*; Abu = CC[CH](N)C(=O)O; OBn = c1ccc(CO*)cc1

System: L1210 leukemia ip in BDF1 mice, survival T/C
Assay: NCI In Vivo Anticancer Drug Screen. Data for tumor model L1210 Leukemia (intraperitoneal) in B6D2F1 (BDF1) mice
Details: endpoint: mean survival time, higher = longer survival
How it was run: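 Tumor was transplanted into mice, which were then dosed with test compound or vehicle alone. Survival was recorded for each group, and the treated figure was expressed relative to the control figure.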

[1] = dose: 100.0 mg/kg/injection, schedule: Q04DX002 (ip), vehicle: Klucel (hydroxypropylcellulose) (HPC)
[2] = dose: 200.0 mg/kg/injection, schedule: Q04DX002 (ip), vehicle: Klucel (hydroxypropylcellulose) (HPC)
[3] = dose: 400.0 mg/kg/injection, schedule: Q04DX002 (ip), vehicle: Klucel (hydroxypropylcellulose) (HPC)
[4] = dose: 50.0 mg/kg/injection, schedule: Q01DX001 (ip), vehicle: saline
[5] = dose: 100.0 mg/kg/injection, schedule: Q01DX001 (ip), vehicle: saline
[6] = dose: 200.0 mg/kg/injection, schedule: Q01DX001 (ip), vehicle: saline
[7] = dose: 400.0 mg/kg/injection, schedule: Q01DX001 (ip), vehicle: saline
[8] = dose: 100.0 mg/kg/injection, schedule: Q01DX009 (ip), vehicle: saline with Tween-80
[9] = dose: 200.0 mg/kg/injection, schedule: Q01DX009 (ip), vehicle: saline with Tween-80
[10] = dose: 100.0 mg/kg/injection, schedule: Q04DX003 (ip), vehicle: Klucel (hydroxypropylcellulose) (HPC)
[11] = dose: 200.0 mg/kg/injection, schedule: Q04DX003 (ip), vehicle: Klucel (hydroxypropylcellulose) (HPC)
[12] = dose: 400.0 mg/kg/injection, schedule: Q01DX009 (ip), vehicle: saline with Tween-80
[13] = dose: 100.0 mg/kg/injection, schedule: Q01DX009 (ip), vehicle: Klucel (hydroxypropylcellulose) (HPC)
[14] = dose: 200.0 mg/kg/injection, schedule: Q01DX009 (ip), vehicle: Klucel (hydroxypropylcellulose) (HPC)
[15] = dose: 400.0 mg/kg/injection, schedule: Q01DX009 (ip), vehicle: Klucel (hydroxypropylcellulose) (HPC)
[16] = dose: 400.0 mg/kg/injection, schedule: Q04DX003 (ip), vehicle: Klucel (hydroxypropylcellulose) (HPC)
[17] = dose: 100.0 mg/kg/injection, schedule: Q04DX003 (ip), vehicle: saline with Tween-80
[18] = dose: 200.0 mg/kg/injection, schedule: Q04DX003 (ip), vehicle: saline with Tween-80
[19] = dose: 400.0 mg/kg/injection, schedule: Q04DX003 (ip), vehicle: saline with Tween-80

Compound: COc1ccc(C2Nc3cc(Cl)ccc3NC3=C2C(=O)CC(C)(C)C3)cc1 (stereo not drawn)
- T/C [1]: 105 % of control
- T/C [2]: 94 % of control
- T/C [3]: 102 % of control

Compound: CC(Cc1ccccc1)N(C)C(=O)CN1C(=O)c2ccccc2C1=O (stereo not drawn)
- T/C [4]: 103 % of control
- T/C [5]: 117 % of control
- T/C [6]: 109 % of control
- T/C [7]: 91 % of control

Compound: CCCCCCCCCCCCC/C=N/Nc1ccc([N+](=O)[O-])cc1[N+](=O)[O-]
- T/C (dose: 50.0 mg/kg/injection, schedule: Q01DX009 (ip), vehicle: saline with Tween-80): 100 % of control
- T/C [8]: 93 % of control
- T/C [9]: 93 % of control

Compound: CCN(CCNc1ccc(C)c2sc3ccccc3c(=O)c12)CC(C)(C)O
- T/C (dose: 25.0 mg/kg/injection, schedule: Q01DX009 (ip), vehicle: saline sonified): 97 % of control
- T/C (dose: 32.0 mg/kg/injection, schedule: Q02DX Z (ip), vehicle: distilled water + alcohol): 119 % of control
- T/C [4]: 106 % of control
- T/C (dose: 50.0 mg/kg/injection, schedule: Q01DX009 (ip), vehicle: saline sonified): 95 % of control
- T/C (dose: 60.0 mg/kg/injection, schedule: Q01DX009 (ip), vehicle: saline): 120 % of control
- T/C [5]: 112 % of control
- T/C (dose: 100.0 mg/kg/injection, schedule: Q01DX009 (ip), vehicle: saline sonified): 118 % of control
- T/C [6]: 109 % of control
- T/C (dose: 200.0 mg/kg/injection, schedule: Q04DX003 (ip), vehicle: saline): 104 % of control
- T/C (dose: 300.0 mg/kg/injection, schedule: Q01DX009 (ip), vehicle: saline): 95 % of control
- T/C [7]: 124 % of control
- T/C (dose: 400.0 mg/kg/injection, schedule: Q04DX003 (ip), vehicle: saline): 108 % of control
- T/C (dose: 600.0 mg/kg/injection, schedule: Q04DX003 (ip), vehicle: saline): 189 % of control

Compound: CCCN(CCC)C(=S)[S-].CCCN(CCC)C(=S)[S-].[Zn]
- T/C (dose: 100.0 mg/kg/injection, schedule: Q04DX003 (ip), vehicle: saline sonified): 100 % of control
- T/C (dose: 200.0 mg/kg/injection, schedule: Q04DX003 (ip), vehicle: saline sonified): 91 % of control
- T/C (dose: 400.0 mg/kg/injection, schedule: Q04DX003 (ip), vehicle: saline sonified): 86 % of control

Compound: CCC1C(=O)N(c2ccc(S(=O)(=O)O)cc2)N=C1C (stereo not drawn)
- T/C [10]: 95 % of control
- T/C [11]: 95 % of control

Compound: COC1(c2cccs2)OC1(C)C (stereo not drawn)
- T/C [8]: 110 % of control
- T/C [9]: 94 % of control
- T/C [12]: 100 % of control

Compound: COc1cc2ccc(C(C)NCC(=O)O)cc2cc1OC (stereo not drawn)
- T/C [13]: 100 % of control
- T/C [10]: 93 % of control
- T/C [14]: 100 % of control
- T/C [11]: 90 % of control
- T/C [15]: 94 % of control
- T/C [16]: 90 % of control

Compound: CCCCCCC(C)OC(=O)CCCc1ccc(N(CCCl)CCCl)cc1 (stereo not drawn)
- T/C (dose: 50.0 mg/kg/injection, schedule: Q01DX009 (ip), vehicle: saline): 122 % of control
- T/C (dose: 100.0 mg/kg/injection, schedule: Q01DX009 (ip), vehicle: saline): 116 % of control
- T/C (dose: 400.0 mg/kg/injection, schedule: Q01DX009 (ip), vehicle: saline): 100 % of control

Compound: CCOC(=O)c1cnc(SC)nc1NCc1ccco1
- T/C [8]: 95 % of control
- T/C [17]: 100 % of control
- T/C [9]: 97 % of control
- T/C [18]: 97 % of control
- T/C [12]: 106 % of control
- T/C [19]: 92 % of control

Compound: Nc1nc(N)c2nc(CNc3ccc(C(=O)NC(CCC(=O)O)C(=O)O)cc3)cnc2n1 (stereo not drawn)
- T/C (dose: 0.02 mg/kg/injection, schedule: Q01DX Z (ip), vehicle: saline): 170 % of control
- T/C (dose: 0.02 mg/kg/injection, schedule: Q01DX Z (sc), vehicle: saline): 122 % of control
- T/C (dose: 0.03 mg/kg/injection, schedule: Q01DX Z (ip), vehicle: saline): 118 % of control
- T/C (dose: 0.05 mg/kg/injection, schedule: Q01DX006 (iv), vehicle: saline): 114 % of control
- T/C (dose: 0.05 mg/kg/injection, schedule: Q01DX010 (ip), vehicle: other): 98 % of control and 112 % of control
- T/C (dose: 0.05 mg/kg/injection, schedule: Q01DX Z (im), vehicle: saline): 119 % of control
- T/C (dose: 0.06 mg/kg/injection, schedule: Q01DX Z (ip), vehicle: saline): 105 % of control
- T/C (dose: 0.1 mg/kg/injection, schedule: Q01DX010 (ip), vehicle: other): 108 % of control
- T/C (dose: 0.1 mg/kg/injection, schedule: Q01DX Z (im), vehicle: saline): 113 % of control
- T/C (dose: 0.1 mg/kg/injection, schedule: Q01DX Z (ip), vehicle: saline): 119 % of control
- T/C (dose: 0.2 mg/kg/injection, schedule: Q01DX Z (im), vehicle: saline): 154 % of control
- T/C (dose: 0.2 mg/kg/injection, schedule: Q01DX Z (ip), vehicle: saline): 96 % of control and 105 % of control
- T/C (dose: 0.2 mg/kg/injection, schedule: Q01DX Z (oral), vehicle: saline): 119 % of control
- T/C (dose: 0.2 mg/kg/injection, schedule: Q01DX Z (sc), vehicle: saline): 101 % of control and 114 % of control
- T/C (dose: 0.4 mg/kg/injection, schedule: Q01DX010 (ip), vehicle: other): 162 % of control
- T/C (dose: 0.5 mg/kg/injection, schedule: Q01DX001 (ip), vehicle: saline): 111 % of control and 114 % of control
- T/C (dose: 0.5 mg/kg/injection, schedule: Q01DX Z (oral), vehicle: saline): 106 % of control
- T/C (dose: 0.5 mg/kg/injection, schedule: Q01DX Z (sc), vehicle: saline): 103 % of control
- T/C (dose: 1.0 mg/kg/injection, schedule: Q01DX001 (ip), vehicle: saline): 115 % of control
- T/C (dose: 1.0 mg/kg/injection, schedule: Q01DX Z (ip), vehicle: saline): 94 % of control
- T/C (dose: 2.0 mg/kg/injection, schedule: Q01DX001 (ip), vehicle: saline): 117 % of control and 121 % of control
- T/C (dose: 16.0 mg/kg/injection, schedule: Q01DX001 (ip), vehicle: saline): 106 % of control and 124 % of control
- T/C (dose: 32.0 mg/kg/injection, schedule: Q01DX001 (ip), vehicle: saline): 96 % of control and 120 % of control
- T/C (dose: 64.0 mg/kg/injection, schedule: Q01DX001 (ip), vehicle: saline): 105 % of control
- T/C (dose: 128.0 mg/kg/injection, schedule: Q01DX001 (ip), vehicle: saline): 105 % of control and 86 % of control
- T/C (dose: 256.0 mg/kg/injection, schedule: Q01DX001 (ip), vehicle: saline): 100 % of control

Compound: CCC(NC(=O)OCc1ccccc1)C(=O)NC(C(=O)OCc1ccccc1)C(C)CC (stereo not drawn) (Cbz-[Abu]-Ile-OBn; configuration not given here)
- T/C [17]: 92 % of control
- T/C [18]: 92 % of control
- T/C [19]: 93 % of control

Compound: O=[N+]([O-])c1ccc(C=Nc2ccc(Cc3ccncc3)cc2)cc1
- T/C (dose: 100.0 mg/kg/injection, schedule: Q01DX009 (ip), vehicle: carboxymethylcellulose (CMC)): 93 % of control and 100 % of control
- T/C (dose: 100.0 mg/kg/injection, schedule: Q04DX002 (ip), vehicle: carboxymethylcellulose (CMC)): 104 % of control
- T/C (dose: 100.0 mg/kg/injection, schedule: Q04DX003 (ip), vehicle: carboxymethylcellulose (CMC)): 101 % of control
- T/C (dose: 200.0 mg/kg/injection, schedule: Q01DX009 (ip), vehicle: carboxymethylcellulose (CMC)): 97 % of control and 98 % of control
- T/C (dose: 200.0 mg/kg/injection, schedule: Q04DX002 (ip), vehicle: carboxymethylcellulose (CMC)): 98 % of control
- T/C (dose: 200.0 mg/kg/injection, schedule: Q04DX003 (ip), vehicle: carboxymethylcellulose (CMC)): 94 % of control
- T/C (dose: 400.0 mg/kg/injection, schedule: Q01DX009 (ip), vehicle: carboxymethylcellulose (CMC)): 95 % of control and 91 % of control
- T/C (dose: 400.0 mg/kg/injection, schedule: Q04DX002 (ip), vehicle: carboxymethylcellulose (CMC)): 93 % of control
- T/C (dose: 400.0 mg/kg/injection, schedule: Q04DX003 (ip), vehicle: carboxymethylcellulose (CMC)): 100 % of control

Compound: O=Cc1ccc(N(c2ccccc2)c2ccccc2)cc1
- T/C [13]: 102 % of control
- T/C [10]: 96 % of control
- T/C [14]: 91 % of control
- T/C [11]: 100 % of control
- T/C [15]: 94 % of control
- T/C [16]: 94 % of control

Compound: COc1cc(C2=N/C(=C\c3cc(Cl)cc(Cl)c3O)C(=O)O2)cc(OC)c1OC
- T/C [1]: 107 % of control
- T/C [2]: 110 % of control
- T/C [3]: 100 % of control
